From ChEMBL document CHEMBL1201862, “PubChem BioAssay data set” (2004)
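All cell lines were grown in 96-well plates and treated with compound for 48 hours. At the GI50, growth is halved.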 Calls of active or inactive are those of the source. Cut-off read from the data, not from the text of the source: active = GI50 up to about 1.1 µM and inactive = higher.

What was measured:
Assay in all cases: inhibition of tumour cell growth, NCI panel, 48 h
A498 = test system: A498
A549 = test system: A549
ACHN = test system: ACHN
BT-549 = test system: BT-549
CAKI-1 = test system: CAKI-1
CCRF-CEM = test system: CCRF-CEM
EKVX = test system: EKVX
HCC 2998 = test system: HCC 2998
HCT-15 = test system: HCT-15
HL-60 = test system: HL-60
HOP-62 = test system: HOP-62
HOP-92 = test system: HOP-92
KM12 = test system: KM12
M14 = test system: M14
MCF7 = test system: MCF7
MDA-MB-231 = test system: MDA-MB-231
MDA-MB-435 = test system: MDA-MB-435
MDA-N = test system: MDA-N
MOLT-4 = test system: MOLT-4
NCI-H226 = test system: NCI-H226
NCI-H23 = test system: NCI-H23
NCI-H460 = test system: NCI-H460
NCI/ADR-RES = test system: NCI/ADR-RES
OVCAR-3 = test system: OVCAR-3
OVCAR-4 = test system: OVCAR-4
OVCAR-5 = test system: OVCAR-5
OVCAR-8 = test system: OVCAR-8
PC-3 = test system: PC-3
RPMI-8226 = test system: RPMI-8226
RXF 393 = test system: RXF 393
SF-268 = test system: SF-268
SF-295 = test system: SF-295
SF-539 = test system: SF-539
SK-MEL-28 = test system: SK-MEL-28
SK-MEL-2 = test system: SK-MEL-2
SK-OV-3 = test system: SK-OV-3
SN12C = test system: SN12C
SNB-19 = test system: SNB-19
SNB-75 = test system: SNB-75
SR = test system: SR
SW-620 = test system: SW-620
TK-10 = test system: TK-10
U-251 = test system: U-251
UACC-257 = test system: UACC-257
UACC-62 = test system: UACC-62
UO-31 = test system: UO-31
786-0 = test system: 786-0
COLO 205 = test system: COLO 205
DU-145 = test system: DU-145
HCT-116 = test system: HCT-116
HT-29 = test system: HT-29
Hs-578T = test system: Hs-578T
K562 = test system: K562
LOX IMVI = test system: LOX IMVI
Malme-3M = test system: Malme-3M
SK-MEL-5 = test system: SK-MEL-5
T47D = test system: T47D

Measured: GI50

C[C@H]1C(=O)O[C@@H]1[C@H]1COC(C)(C)O1
active: HL-60 0.769 µM
> 100 µM: HCT-15
inactive: A498 > 100 µM | A549 > 100 µM | ACHN > 100 µM | BT-549 > 100 µM | CAKI-1 > 100 µM | CCRF-CEM 32.5 µM | EKVX > 100 µM | HCC 2998 > 100 µM | HOP-62 > 100 µM | HOP-92 > 100 µM | KM12 > 100 µM | M14 > 100 µM | MCF7 > 100 µM | MDA-MB-231 > 100 µM | MDA-MB-435 > 100 µM | MDA-N > 100 µM | MOLT-4 > 100 µM | NCI-H226 > 100 µM | NCI-H23 > 100 µM | NCI-H460 > 100 µM | NCI/ADR-RES > 100 µM | OVCAR-3 > 100 µM | OVCAR-4 > 100 µM | OVCAR-5 > 100 µM | OVCAR-8 > 100 µM | PC-3 > 100 µM | RPMI-8226 > 100 µM | RXF 393 > 100 µM | SF-268 > 100 µM | SF-295 > 100 µM | SF-539 > 100 µM | SK-MEL-28 > 100 µM | SK-MEL-2 > 100 µM | SK-OV-3 > 100 µM | SN12C > 100 µM | SNB-19 > 100 µM | SNB-75 82 µM | SR > 100 µM | SW-620 > 100 µM | TK-10 > 100 µM | U-251 > 100 µM | UACC-257 > 100 µM | UACC-62 > 100 µM | UO-31 > 100 µM

CCOC(=S)SSSC(=S)OCC
19.5 µM: HCT-15
inactive: 786-0 15.2 µM | A498 > 100 µM | A549 33.7 µM | ACHN 19.1 µM | CAKI-1 29.9 µM | CCRF-CEM 30.5 µM | COLO 205 55 µM | DU-145 21 µM | EKVX 48.5 µM | HCC 2998 68.4 µM | HCT-116 20.8 µM | HL-60 76.6 µM | HOP-62 30.3 µM | HOP-92 > 100 µM | HT-29 54.3 µM | Hs-578T > 100 µM | K562 26.3 µM | KM12 41.4 µM | LOX IMVI 25.1 µM | M14 27 µM | MCF7 28.2 µM | MDA-MB-231 33.1 µM | MDA-MB-435 54.3 µM | MDA-N 49.3 µM | MOLT-4 27.9 µM | Malme-3M 16.3 µM | NCI-H226 82.6 µM | NCI-H23 33.4 µM | NCI-H460 30.7 µM | NCI/ADR-RES 58.1 µM | OVCAR-3 26.4 µM | OVCAR-5 28.6 µM | OVCAR-8 13.8 µM | PC-3 > 100 µM | RPMI-8226 24 µM | RXF 393 47.9 µM | SF-268 71.3 µM | SF-295 51.5 µM | SF-539 67.1 µM | SK-MEL-28 > 100 µM | SK-MEL-5 36.1 µM | SK-OV-3 > 100 µM | SN12C 21.6 µM | SNB-19 65 µM | SNB-75 28.2 µM | SR 13.5 µM | SW-620 32.5 µM | T47D 4.22 µM | TK-10 > 100 µM | U-251 31.6 µM | UACC-257 50.5 µM | UACC-62 37.9 µM
